Data taken from PubChem BioAssay (NCI).
Where “and” joins values, the source holds several entries; their conditions need not be identical. Identical values can stand only once.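 Results reflect a 48-hour exposure of cells in 96-well plates to compound at five concentrations. GI50 marks 50% less growth. TGI: total growth inhibition.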

Legend:
Test in all cases: NCI anticancer screen, dose series, 48 h
SK-MEL-28 melanoma = test system: SK-MEL-28 melanoma
U251 CNS = test system: U251 CNS
HCC-2998 colon = test system: HCC-2998 colon
MOLT-4 leukemia = test system: MOLT-4 leukemia
HL-60(TB) leukemia = test system: HL-60(TB) leukemia
T-47D breast = test system: T-47D breast
K-562 leukemia = test system: K-562 leukemia
CAKI-1 renal = test system: CAKI-1 renal
SF-268 CNS = test system: SF-268 CNS
DU-145 prostate = test system: DU-145 prostate

SMILES	GI50 (SK-MEL-28 melanoma)	TGI (SK-MEL-28 melanoma)	GI50 (U251 CNS)	TGI (U251 CNS)	GI50 (HCC-2998 colon)	TGI (HCC-2998 colon)	GI50 (MOLT-4 leukemia)	TGI (MOLT-4 leukemia)	GI50 (HL-60(TB) leukemia)	TGI (HL-60(TB) leukemia)	GI50 (T-47D breast)	TGI (T-47D breast)	GI50 (K-562 leukemia)	TGI (K-562 leukemia)	GI50 (CAKI-1 renal)	TGI (CAKI-1 renal)	GI50 (SF-268 CNS)	TGI (SF-268 CNS)	GI50 (DU-145 prostate)	TGI (DU-145 prostate)
CC1=C[C@H]2C[C@H](C)[C@H]3CC[C@H](C)[C@]4(C1)C(=O)C(O)=C(C)C(=O)[C@@]324	26 µM	> 100 µM	32.1 µM	> 100 µM	19.6 µM	47.2 µM	16.3 µM	37.4 µM	15.7 µM	33.1 µM	19.1 µM	> 100 µM	20 µM	39.5 µM	24.9 µM	66.1 µM	> 100 µM	> 100 µM	43.3 µM	> 100 µM
CC12CCC3c4cc(Br)c(O)c(Br)c4CCC3C1CCC2O (stereo not drawn)		34.9 µM		29.6 µM		25.3 µM		42.2 µM		66.6 µM		83.8 µM		64.6 µM		31.5 µM		49.6 µM		> 100 µM
C[C@@H]1COCCN1c1cc(C2([S@@](C)(=N)=O)CC2)nc(-c2ccnc3[nH]ccc23)n1	9.76 µM	> 88.9 µM	12.3 µM	> 100 µM	4.69 µM	> 100 µM	3.99 µM	62.6 µM	3.87 µM	41.5 µM	3.43 µM	33.4 µM	8.91 µM	> 100 µM	11.7 µM	> 79.2 µM	9.66 µM	> 100 µM	4.71 µM	> 100 µM
N#CN1CC[C@H](C(=O)Nc2cc3cc(C(N)=O)ccc3cn2)C1	0.117 µM	9.41 µM	0.0815 µM	38.4 µM	0.144 µM	10.8 µM	0.0488 µM		0.109 µM	0.443 µM	0.016 µM	0.0651 µM	0.131 µM	> 54.2 µM	0.487 µM	> 100 µM	0.0732 µM	24.3 µM	0.357 µM	> 65.4 µM
O=C(Nc1cc(Oc2cc(F)c(NC(=O)C3(C(=O)Nc4ccc(F)cc4)CC3)cc2F)ccn1)C1CC1	1.64 µM	6.33 µM	3.96 µM	> 46.3 µM	3.5 µM	> 29.4 µM	2.18 µM	7.1 µM	2.18 µM	5.6 µM	2.33 µM	6.61 µM	1.9 µM	> 100 µM	3.77 µM	> 100 µM	3.09 µM	> 28.5 µM	3.27 µM	> 100 µM
COc1ccccc1NS(=O)(=O)c1ccc2oc(SC(C)C)nc2c1	37.5 µM	> 100 µM	33.1 µM	> 100 µM	27 µM	51.4 µM	5.23 µM	39.7 µM	6.09 µM	29.1 µM	8.98 µM	> 100 µM	3.73 µM	> 100 µM	17 µM	68.9 µM	29.5 µM	> 100 µM	31.8 µM	> 100 µM
CCN1C[C@]2(COC)[C@H](O)C[C@H](OC)[C@]34C1[C@H]([C@H](OC)[C@H]23)[C@]1(OC(C)=O)[C@H]2[C@@H](OC(=O)c3ccccc3)[C@](O)(C[C@H]24)[C@@H](OC)[C@@H]1O		> 100 µM		> 100 µM		> 100 µM				> 100 µM		> 100 µM		> 100 µM		> 100 µM		> 100 µM		> 100 µM
C[C@]12CCNC(=O)C=C1CC[C@@H]1C2CC[C@@]2(C)C1CC[C@@H]2OC(=O)COc1ccc(N(CCCl)CCCl)cc1 (stereo partly drawn)		36.3 µM		11.1 µM		15 µM		> 22.2 µM		7.4 µM		9.03 µM		46.3 µM		23 µM		23.8 µM		22 µM
Nc1nc(=O)n([C@@H]2CS[C@H](CO)O2)cc1F	> 100 µM	> 100 µM	> 100 µM	> 100 µM	> 100 µM	> 100 µM	> 100 µM	> 100 µM	> 100 µM	> 100 µM	> 100 µM	> 100 µM	> 100 µM	> 100 µM	> 100 µM	> 100 µM	> 100 µM	> 100 µM	> 100 µM	> 100 µM
N#Cc1c(N)nc(NCc2ccccc2)c(C#N)c1-c1ccc(Cl)cc1Cl	> 100 µM	> 100 µM	> 61.9 µM	> 100 µM	> 100 µM	> 100 µM	34.6 µM	> 100 µM		> 100 µM	72.3 µM	> 100 µM	> 100 µM	> 100 µM	> 100 µM	> 100 µM		1.18 µM	> 100 µM	> 100 µM
O=c1oc2ccc(-c3ccc(F)cc3F)cc2c(=O)n1-c1ccc(Cl)c(C(F)(F)F)c1	2.05 µM	5.77 µM	2.36 µM	12.5 µM	2.41 µM	6.03 µM	2.33 µM	5.45 µM	2.43 µM	5.35 µM	0.585 µM	4.34 µM	2.38 µM	> 100 µM	1.91 µM	6.35 µM	2.51 µM	9.13 µM	3.75 µM	> 100 µM
CC(=O)OC1CC[C@@]2(C)C(CC[C@]3(C)C2CC=C2[C@@H]4C(C)[C@H](C)CCC4(C)CCC23C)[C@@]1(C)C(=O)O (stereo partly drawn)		52 µM		58.2 µM		38.7 µM		69.6 µM		63.5 µM		43.3 µM		86.9 µM		35.1 µM		60.5 µM		33.2 µM
Cc1cccc(NC(=O)/C=C/c2ccc([N+](=O)[O-])cc2)c1		> 57.6 µM		> 52.9 µM		32.7 µM		> 65.4 µM		> 24.8 µM		> 55.9 µM		> 100 µM		> 54.4 µM		> 76.8 µM		> 55 µM
Nc1ccccc1C#C/C=C\C#Cc1c(F)c(F)c(F)c(F)c1F	17 µM	38.4 µM	13 µM	25.7 µM	19.4 µM	37.6 µM	1.76 µM	34.8 µM	28.8 µM	57.1 µM	23 µM	61.6 µM	16.3 µM	53.7 µM	10.9 µM	29.1 µM	14.1 µM	50.9 µM	24.7 µM	79.9 µM
Cc1cn(-c2ccc(S(C)(=O)=O)cc2)c(-c2ccc(Cl)cc2)n1	> 100 µM	> 100 µM	> 100 µM	> 100 µM	> 100 µM	> 100 µM	> 100 µM	> 100 µM	> 100 µM	> 100 µM	> 100 µM	> 100 µM	> 100 µM	> 100 µM	> 100 µM	> 100 µM	> 100 µM	> 100 µM	> 100 µM	> 100 µM
O=S(=O)(Nc1ccc(F)c(Cl)c1)c1ccc(-c2cnc(C3CC3)o2)cc1	1.73 µM	14.5 µM	0.438 µM	13.7 µM	1.13 µM	7.9 µM	0.396 µM	88.2 µM	0.213 µM	2.16 µM	0.361 µM	13.1 µM	0.0623 µM	> 52.8 µM	0.179 µM	11.7 µM	1.24 µM	11.3 µM	0.592 µM	12.2 µM
COc1cc(/C=C/c2cc(/C=C/c3ccc(O)c(OC)c3)n(C(=O)Nc3ccc(Cl)cc3)n2)ccc1O	1.07 µM	4.07 µM	0.525 µM	5.33 µM	1.68 µM	6.01 µM	0.374 µM	3.47 µM	0.292 µM	0.982 µM	1.25 µM	4.17 µM	0.306 µM	1.34 µM	0.401 µM	36.6 µM	0.58 µM	4.2 µM	0.382 µM	1.67 µM
CN1CCN(CCOc2cc(OC3CCOCC3)c3c(Nc4c(Cl)ccc5c4OCO5)ncnc3c2)CC1	13.6 µM and > 10 µM	27.2 µM and > 10 µM	11.2 µM and > 10 µM	31.1 µM and > 10 µM	17.7 µM and > 10 µM	37.7 µM and > 10 µM	14.6 µM and > 10 µM	49.2 µM and > 10 µM	18.7 µM and > 10 µM	37.8 µM and > 10 µM	1.23 µM and 0.286 µM	22.3 µM and > 10 µM	0.382 µM and 0.47 µM	9.24 µM and > 10 µM	0.571 µM and 0.644 µM	10.5 µM and > 10 µM	4.72 µM and > 10 µM	33.8 µM and > 10 µM	3.72 µM and 7.29 µM	39.7 µM and > 10 µM
CCS(=O)(=O)c1ccc(OC)c(Nc2ncc(-c3ccccc3Cl)o2)c1	> 25 µM	> 25 µM	18.1 µM	> 25 µM	18.1 µM	> 25 µM	14.1 µM	> 25 µM	11.8 µM	> 21.5 µM	8.57 µM	> 25 µM	11 µM	> 25 µM	24.3 µM	> 25 µM	11.7 µM	> 25 µM	10.1 µM	> 25 µM
C#COc1cccc(Nc2ncnc3cc(NC(=O)[C@H](C)Cl)ccc23)c1	4.71 µM	> 62.5 µM	2.84 µM	> 62.5 µM	5.71 µM	> 62.5 µM	2.42 µM	> 62.5 µM	1.1 µM	3.19 µM	19.3 µM	> 62.5 µM	2.03 µM	> 62.5 µM	2.95 µM	> 62.5 µM	4.3 µM	> 62.5 µM	6.09 µM	> 62.5 µM
COc1cccc(C2C3=C(COC3=O)N(CCO)c3cc4c(cc32)OCO4)c1 (stereo not drawn)	> 50 µM	> 50 µM	0.269 µM	> 50 µM	0.211 µM	1.2 µM	0.315 µM	> 16.7 µM	0.132 µM	0.352 µM	0.263 µM	> 50 µM	0.155 µM	> 18.7 µM	0.449 µM	> 50 µM	1.53 µM	49.2 µM	0.388 µM	
COc1cc(C2C3=C(COC3=O)N(CCO)c3cc4c(cc32)OCO4)cc(OC)c1O (stereo not drawn)	> 50 µM	> 50 µM	2.19 µM	> 50 µM	1.53 µM	4.65 µM	2.15 µM	> 24.9 µM	1.32 µM	3.26 µM	1.97 µM	> 50 µM	1.49 µM	> 50 µM	5.4 µM	> 41 µM	2.18 µM	> 50 µM	1.58 µM	7.22 µM
COc1cc(NCCN=C(N)NC(N)=NC(C)C)c2ncccc2c1	14.1 µM	> 83.8 µM	12.4 µM	> 100 µM	6.61 µM	50.9 µM	25 µM	> 100 µM	14.3 µM	39.6 µM	1.44 µM	5.12 µM	10.7 µM	> 100 µM	> 100 µM	> 100 µM	3.98 µM	> 100 µM	38.3 µM	> 100 µM
Cc1ccc(NCCN(C)C)c2c(=O)c3ccccc3sc12	1.71 µM	3.11 µM	1.83 µM	3.82 µM	1.57 µM	2.92 µM	1.13 µM	4.33 µM	1.72 µM	4.15 µM	1.82 µM	4.96 µM	1.6 µM	3.56 µM	2.08 µM	7.56 µM	1.97 µM	4.74 µM	2.02 µM	4.63 µM
COc1ccc(C2C=C(c3ccc(Cl)cc3)N=C3SC=C(C)N32)c(Br)c1 (stereo not drawn)	5.11 µM	17.4 µM	3.34 µM	13.1 µM	4.43 µM	14.6 µM	4.12 µM	> 100 µM	3.85 µM	51.5 µM	3.45 µM	21.5 µM	4.02 µM	> 100 µM	2.98 µM	12.4 µM	3.17 µM	13.1 µM	2.68 µM	7.26 µM
COc1cccc2c1C(=O)OC2c1cccc2ccccc12 (stereo not drawn)		> 100 µM		> 100 µM		> 100 µM		> 100 µM		> 100 µM		> 100 µM		> 100 µM		> 100 µM		> 100 µM		> 100 µM
C=C(C)C(=O)O[C@@H]1C/C(C)=C\[C@H](OC(C)=O)C[C@](C)(O)/C=C2/OC(=O)C(COC(C)=O)=C21		0.762 µM				1.64 µM		2.32 µM		0.0496 µM		22.1 µM		0.879 µM		0.99 µM				7.13 µM
